The values below come from patent publication US6605589B1, “Cathepsin inhibitors in cancer treatment” (Parker Hughes Institute, priority 2000, dated 2003).

For this assay, the system named is SQ-20B, BT-20, U373, HeLa and NCI-H520 cells. Description: CATI-1 induced apoptosis in presence of caspase inhibitor I (flow cytometry). Format: cell-based, human. The note with it: 50 μM caspase inhibitor I with 50 μM CATI-1, 24 hours; any cell line tested. As for the experimental part: The percentages indicate the fraction of cells at an early stage of apoptosis (lower right quadrant), as measured by single MC540 fluorescence, and the fraction of cells at an advanced stage of apoptosis (upper right quadrant).
Quantitative flow cytometric apoptosis detection assays were performed on BT-20 (breast cancer), PC-3 (prostate cancer), U373 (glioblastoma), SQ20B (squamous cell carcinoma), HeLa (cervix cancer), and DU145 (prostate cancer). Just prior to the assay, one mg/ml stock solutions of MC540 (Sigma, St. Louis, Mo.) and PI (Sigma, St. Louis, Mo.) were filtered through a 0.22 μm filter and stored at 4° C. in the dark. […] Stained cells were analyzed with a FACStar Plus flow cytometer (Becton Dickinson, San Jose, Calif.) using the 488-nm excitation from an argon laser. […] In each experiment approximately 10,000 cells were analyzed by FACS and the percentage of cells at early (MC540 fluorescence only) and advanced (dual MC540 plus PI fluorescence) stages of apoptosis obtained.
Human cancer cell lines were treated with 50 μM CATI-1 in the presence and absence of 50 μM caspase inhibitor I (Z-Val-Ala-Asp(Ome)-CH2F) (Calbiochem, La Jolla, Calif.) for 24 hours to determine whether caspases were required for cathepsin inhibitor activity. […] Quantitative flow cytometric apoptosis detection assays were performed on treated cells as previously discussed in Example II.

Residues, ends and D or L forms follow the SMILES beside them. *: point of attachment. Cbz = O=C(OCc1ccccc1)*; CH2F = FC*

On to `COC(=O)C[C@H](NC(=O)[C@H](C)NC(=O)[C@@H](NC(=O)OCc1ccccc1)C(C)C)C(=O)CF` [caspase inhibitor I, Z-Val-Ala-Asp(Ome)-CH2F] (Cbz-Val-Ala-Asp(OMe)-CH2F), for which the “impact on CATI-1 induced apoptosis” value was “no detectable impact”.
